From PMC4166484 (European journal of medicinal chemistry, 2011) come the findings set out here.

Where two headings read alike, the source gives them in different places.

One series relates to SKBR-3 cells. Nature of the series: Cell cycle distribution by FACS. It is filed as cell-based. The note with it: SKBR-3, 0.5 μM and 5 μM, after 12h. (In general: In flow cytometry, cells or beads pass a laser one at a time.)
The subject of series [1] is 60 human tumor cell lines. Nature of the series: NCI DTP screen against 60 human tumor cell lines. It counts as cell-based. To be noted: read-out: IC50s, growth of a broad range of cancer cell lines.
The nature of series [2]: Pharmacokinetic study, intraperitoneal. It counts as in vivo, Sprague-Dawley rats. To be noted: male, Sprague-Dawley, rat, plasma, ip, 20 mg/kg.
The test system of the next series is A498. It counts as cell-based. The note with it: Homo sapiens, A498, 48 h.
Series [3] has as its system SKBR-3 breast cancer cell. Nature of the series: MTT cell viability, SKBR-3 breast cancer cell growth. It is filed as cell-based.

As to `Cc1ccc(C)c(COc2cc(NC(=O)c3ccc4c(c3)OCO4)ccc2N(C)S(C)(=O)=O)c1` [Compound 10, Benzo[1,3]dioxole-5-carboxylic acid [3-(2,5-dimethyl-benzyloxy)-4-(methanesulfonyl-methyl-amino)-phenyl]-amide], in the series on SKBR-3 cells, the cell cycle effect entry is “accumulated at G2/M and subG1 phase”. Besides, the IC50 in series [1] was 200 to 500 nM. In addition, the AUC(0-t) is 22600 ng·h/mL in series [2] (Rat 2, 20mg/kg i.p.) and 9720 ng·h/mL in series [2] (Rat 3, 20mg/kg i.p.). This compound also gave a mean residence time (MRT last) in series [2] (MRT(0-t), Rat 3, 20mg/kg i.p.) of 5.62 h. Moreover, the half-life is 2.44 h in series [2] (T1/2, Rat 1, 20mg/kg i.p.); 3.71 h in series [2] (T1/2, Rat 2, 20mg/kg i.p.); 3.21 h in series [2] (T1/2, Rat 3, 20mg/kg i.p.). In the series with A498, the concentration for 50% growth inhibition (GI50) amounted to 122 nM.

On to `COc1ccc(CC(=O)Nc2ccc(N(C)S(C)(=O)=O)c(OCc3cc(C)ccc3C)c2)cc1OC` [Compound 17, N-[3-(2,5-Dimethyl-benzyloxy)-4-(methanesulfonyl-methyl-amino)-phenyl]-(3,4-dimethoxyphenyl)-acetamide], for which, in series [3] (Homo sapiens, SK-BR-3, 48 h, read-out: IC50 against SKBR-3 breast cancer cell growth, 48h treatment, MTT assay, six replicates), the IC50 was above 30000 nM.

Take `Cc1ccc(C)c(COc2cc(NC(=O)Cc3ccccc3)ccc2N(C)S(C)(=O)=O)c1` [Compound 24, N-[3-(2,5-Dimethyl-benzyloxy)-4-(methanesulfonyl-methyl-amino)-phenyl]-2-phenyl-acetamide]: the IC50 in series [3] (read-out: IC50 against SKBR-3 breast cancer cell growth, 48h treatment, MTT assay, six replicates) was above 30000 nM.

For orientation: AUC(0-t) means exposure summed from dosing to a finite time, without extrapolation to infinity. High values mean more exposure, low ones less exposure. The term MRT last denotes a mean duration of stay, worked out from the concentration-time curve. As usually defined, the half-life is the time in which the quantity being followed falls by half. Low values mean rapid decline, high ones slow decline. The term GI50 denotes the concentration that inhibits growth by half. Read a high GI50 as less potent growth inhibition.
